Laboratory results published in patent US20040116293A1, “Enhanced herbicide composition” (priority 2002, published 2004).

System: Xanthi-nc tobacco
Experiment: Potentiation rating of Aatrex Nine-O (atrazine) herbicidal activity on Xanthi-nc tobacco relative to equimolar salicylic acid
Assay type: in vivo, Nicotiana tabacum (tobacco)
Parameters: Potentiation Rating: key: 0 = no potentiation; 1 = potentiation less than equimolar SA; 2 = potentiation statistically equal to equimolar SA; 3 = potentiation statistically greater than equimolar SA
Conditions: for Potentiation of the herbicidal activity of atrazine compared with salicylic acid (in words): tobacco
Excerpt: In all examples, deionized ultra-pure water was used in preparing solutions. Spray solutions were used as soon as possible after mixing.
In all herbicide applications, plants were sprayed with a sufficient volume to insure good coverage, to the point of runoff of the spray solution. […] For all treatments containing both an herbicide and a salicylate or SAR inducer, these materials were mixed and applied in a single spray solution (commonly known as a tank mix). After spraying, plants were moved to the greenhouse and arranged in randomized complete blocks. Plants were evaluated for herbicidal effects (phytotoxicity) after spraying by assessing damage according to percent leaf area affected. All the data were subject to an analysis of variance, and the mean separations were determined with Duncan's multiple range test at α=0.05.

[1] = salicylates, picolinates and benzoates at 2 mM with Aatrex Nine-O (atrazine)
[2] = salicylic acid or SAR inducers with Aatrex Nine-O (atrazine), compared with equimolar SA

Row | Compound | Potentiation Rating [1] | Potentiation of the herbicidal activity of atrazine compared with salicylic acid (in words) | Potentiation Rating [2]
1 | O=C(O)c1cc(Br)cc(Br)c1O [3,5-Dibromosalicylic acid] | 2 | as active as salicylic acid | 
2 | O=C(O)c1ccc(F)cc1O [4-Fluorosalicylic acid] | 3 | greater potentiation than salicylic acid | 
3 | Cc1ccc(C(=O)O)c(O)c1 [4-Methylsalicylic acid] | 0 | no potentiation | 
4 | O=C(O)c1cc(Br)ccc1O [5-Bromosalicylic acid] | 2 | as active as salicylic acid | 
5 | C=CCOC1=NS(=O)(=O)c2ccccc21 [Probenazole] |  | greater potentiation than equimolar salicylic acid | 
6 | O=C(O)c1ncccc1O [3-Hydroxypicolinic acid] | 3 |  | 
7 | O=C([O-])c1ccccc1.[Na+] [Sodium benzoate] | 0 | no potentiation | 
8 | O=C(O)c1cc([N+](=O)[O-])ccc1O [5-Nitrosalicylic acid] | 2 | as active as salicylic acid | 
9 | O=C(O)c1cc(Cl)nc(Cl)c1 [2,6-Dichloroisonicotinic acid] |  | greater potentiation than equimolar salicylic acid | 3
10 | Cc1ccc(O)c(C(=O)O)c1 [5-Methylsalicylic acid] | 0 |  | 
11 | O=C(O)c1cc(F)cc(F)c1O [3,5-Difluorosalicylic acid] | 3 | greater potentiation than salicylic acid | 
12 | Cc1cccc(C(=O)O)c1O [3-Methylsalicylic acid] | 0 | no potentiation | 
13 | O=C(O)c1c(O)cccc1F [6-Fluorosalicylic acid] | 2 | as active as salicylic acid | 
14 | O=C(O)c1cccc([N+](=O)[O-])c1O [3-Nitrosalicylic acid] | 2 | as active as salicylic acid | 
15 | CCOC(=O)C(C)OC(=O)c1cc(Oc2ccc(C(F)(F)F)cc2Cl)ccc1[N+](=O)[O-] (stereo not drawn) [lactofen] |  | greater potentiation than equimolar salicylic acid | 
16 | O=C(O)c1cc(Cl)cc(Cl)c1O [3,5-Dichlorosalicylic acid] |  | greater potentiation than equimolar salicylic acid | 3
17 | COc1cccc(C(=O)O)c1O [3-Methoxysalicylic acid] | 2 | as active as salicylic acid | 
18 | O=C(O)c1ccc(Cl)cc1O [4-Chlorosalicylic acid] |  | greater potentiation than equimolar salicylic acid | 3
19 | O=C(O)c1cc(Cl)ccc1O [5-Chlorosalicylic acid] |  | greater potentiation than equimolar salicylic acid | 3
20 | O=C(O)c1ccccc1O [Salicylic acid, salicylic acid] | 2 |  | 2
21 | Cc1cccc(O)c1C(=O)O [6-Methylsalicylic acid] | 0 | no potentiation | 
22 | O=C(O)c1cccc(F)c1O [3-Fluorosalicylic acid] | 3 | greater potentiation than salicylic acid | 
23 | O=C(O)c1cc(F)ccc1O [5-Fluorosalicylic acid] | 3 | greater potentiation than salicylic acid | 
